We go through five molecules from PubChem BioAssay AID1745844 (Carcinogenic Potency Database (CPDB), 2022).

The data set concerns rodent lifetime carcinogenesis bioassay, tumor incidence TD50. Kind of data set: chronic cancer bioassays in animals – CPDB, compiled studies (AID 1745844).
The mark [1] stands for this setting: mouse, strain B6C3F1, males, in feed, site: liver, lesion: hepatocellular adenoma, dosed 52 weeks, study length 52 weeks.

Activity calls are given as the source filed them. The rule behind the calls is not given here.

Take `O=[N+]([O-])c1ccc2nc[nH]c2c1`: the TD50 by setting is: (mouse, strain B6C3F1, females, in feed, site: any site (literature study), lesion: several types, types named in the paper, dosed 78 weeks, study length 95 weeks) 429 mg/kg/day; (mouse, strain B6C3F1, females, in feed, site: liver, lesion: hepatocellular adenoma + hepatocellular carcinoma + neoplastic nodule, dosed 78 weeks, study length 95 weeks) 354 mg/kg/day; (mouse, strain B6C3F1, females, in feed, site: liver, lesion: hepatocellular adenoma + hepatocellular carcinoma, dosed 78 weeks, study length 95 weeks) 354 mg/kg/day; (mouse, strain B6C3F1, females, in feed, site: liver, lesion: hepatocellular carcinoma, dosed 78 weeks, study length 95 weeks) 762 mg/kg/day; (mouse, strain B6C3F1, females, in feed, site: pituitary gland, lesion: adenoma, NOS + chromophobe adenoma, dosed 78 weeks, study length 95 weeks) 335 mg/kg/day; (mouse, strain B6C3F1, males, in feed, site: any site (literature study), lesion: several types, types named in the paper, dosed 78 weeks, study length 95 weeks) 1980 mg/kg/day. In addition, the TD50 is 392 mg/kg/day (mouse, strain B6C3F1, males, in feed, site: liver, lesion: hepatocellular adenoma + hepatocellular carcinoma + neoplastic nodule, dosed 78 weeks, study length 95 weeks); 392 mg/kg/day (mouse, strain B6C3F1, males, in feed, site: liver, lesion: hepatocellular adenoma + hepatocellular carcinoma, dosed 78 weeks, study length 95 weeks); 423 mg/kg/day (mouse, strain B6C3F1, males, in feed, site: liver, lesion: hepatocellular carcinoma, dosed 78 weeks, study length 95 weeks); 8830 mg/kg/day (rat, strain Fischer 344, males, in feed, site: liver, lesion: hepatocellular adenoma + hepatocellular carcinoma + neoplastic nodule, dosed 78 weeks, study length 105 weeks). The carcinogen call (rat, strain Fischer 344, females, in feed, site: any site (literature study), lesion: several types, types named in the paper, dosed 78 weeks, study length 105 weeks) was “negative (inactive)” and the carcinogen call (rat, strain Fischer 344, males, in feed, site: any site (literature study), lesion: several types, types named in the paper, dosed 78 weeks, study length 105 weeks) is “negative (inactive)”.
In the case of `CCC1CO1` (stereo not drawn), the TD50 runs as follows: (mouse, strain B6C3F1, females, inhaled, site: any site (literature study), lesion: several types, types named in the paper, dosed 102 weeks, study length 104 weeks) 141 mg/kg/day (inactive); (mouse, strain B6C3F1, females, inhaled, site: liver, lesion: hepatocellular adenoma + hepatocellular carcinoma + neoplastic nodule, dosed 102 weeks, study length 104 weeks) 445 mg/kg/day; (mouse, strain B6C3F1, females, inhaled, site: lung, lesion: alveolar/bronchiolar adenoma + alveolar/bronchiolar carcinoma, dosed 102 weeks, study length 104 weeks) 834 mg/kg/day; (mouse, strain B6C3F1, males, inhaled, site: any site (literature study), lesion: several types, types named in the paper, dosed 102 weeks, study length 104 weeks) 2470 mg/kg/day (inactive); (mouse, strain B6C3F1, males, inhaled, site: liver, lesion: hepatocellular adenoma + hepatocellular carcinoma + neoplastic nodule, dosed 102 weeks, study length 104 weeks) 8600 mg/kg/day; (rat, strain Fischer 344, females, inhaled, site: any site (literature study), lesion: several types, types named in the paper, dosed 103 weeks, study length 105 weeks) 78 mg/kg/day. Moreover, the TD50 reads like this: (rat, strain Fischer 344, females, inhaled, site: nasal cavity, lesion: papillary adenoma, dosed 103 weeks, study length 105 weeks) 1730 mg/kg/day; (rat, strain Fischer 344, females, inhaled, site: ovary, lesion: granulosa-cell carcinoma + granulosa-cell tumor + thecoma, dosed 103 weeks, study length 105 weeks) 545 mg/kg/day; (rat, strain Fischer 344, females, inhaled, site: pituitary gland, anterior, lesion: adenoma, NOS, dosed 103 weeks, study length 105 weeks) 83.8 mg/kg/day; (rat, strain Fischer 344, females, inhaled, site: thyroid gland, lesion: follicular-cell adenoma + follicular-cell carcinoma, dosed 103 weeks, study length 105 weeks) 509 mg/kg/day; (rat, strain Fischer 344, males, inhaled, site: any site (literature study), lesion: several types, types named in the paper, dosed 103 weeks, study length 105 weeks) 79.6 mg/kg/day; (rat, strain Fischer 344, males, inhaled, site: liver, lesion: hepatocellular adenoma + hepatocellular carcinoma + neoplastic nodule, dosed 103 weeks, study length 105 weeks) 622 mg/kg/day. Further, the TD50 by setting is: (rat, strain Fischer 344, males, inhaled, site: lung + nasal cavity, lesion: alveolar/bronchiolar adenoma + alveolar/bronchiolar carcinoma + papillary adenoma, dosed 103 weeks, study length 105 weeks) 106 mg/kg/day; (rat, strain Fischer 344, males, inhaled, site: lung, lesion: alveolar/bronchiolar adenoma + alveolar/bronchiolar carcinoma, dosed 103 weeks, study length 105 weeks) 220 mg/kg/day; (rat, strain Fischer 344, males, inhaled, site: lung, lesion: alveolar/bronchiolar carcinoma, dosed 103 weeks, study length 105 weeks) 314 mg/kg/day; (rat, strain Fischer 344, males, inhaled, site: multiple organs + spleen, lesion: mononuclear-cell leukemia, dosed 103 weeks, study length 105 weeks) 30.7 mg/kg/day; (rat, strain Fischer 344, males, inhaled, site: nasal cavity, lesion: papillary adenoma, dosed 103 weeks, study length 105 weeks) 220 mg/kg/day.
Consider `c1ccc2[nH]c(-c3cscn3)nc2c1`, for which the TD50 was 390 mg/kg/day (inactive) under setting [1]; 4880 mg/kg/day (inactive) (mouse, strain Crj: CD-1 (ICR), females, in feed, site: lung, lesion: alveolar/bronchiolar adenoma, dosed 78 weeks, study length 78 weeks); 16300 mg/kg/day (inactive) (mouse, strain Crj: CD-1 (ICR), females, in feed, site: urinary bladder, lesion: mesenchymal neoplasm, dosed 78 weeks, study length 78 weeks); 15000 mg/kg/day (inactive) (mouse, strain Crj: CD-1 (ICR), males, in feed, site: urinary bladder, lesion: transitional-cell papilloma, dosed 78 weeks, study length 78 weeks); 7640 mg/kg/day (inactive) (rat, strain F344/DuCrj, females, in feed, site: urinary bladder, lesion: transitional-cell papilloma, dosed 104 weeks, study length 104 weeks); 3050 mg/kg/day (inactive) (rat, strain F344/DuCrj, males, in feed, site: kidney, lesion: transitional-cell carcinoma, dosed 104 weeks, study length 104 weeks). Moreover, the TD50 (rat, strain F344/DuCrj, males, in feed, site: preputial gland, lesion: adenoma, dosed 104 weeks, study length 104 weeks) is 571 mg/kg/day. Also, the carcinogen call runs as follows: (mouse, strain Crj: CD-1 (ICR), females, in feed, site: liver, lesion: one or several types, types not named, dosed 78 weeks, study length 78 weeks) “negative (inactive)”; (mouse, strain Crj: CD-1 (ICR), females, in feed, site: lung, lesion: alveolar/bronchiolar carcinoma, dosed 78 weeks, study length 78 weeks) “negative (inactive)”; (mouse, strain Crj: CD-1 (ICR), males, in feed, site: liver, lesion: hepatocellular adenoma, dosed 78 weeks, study length 78 weeks) “negative (inactive)”; (mouse, strain Crj: CD-1 (ICR), males, in feed, site: liver, lesion: hepatocellular carcinoma, dosed 78 weeks, study length 78 weeks) “negative (inactive)”; (mouse, strain Crj: CD-1 (ICR), males, in feed, site: lung, lesion: alveolar/bronchiolar adenoma, dosed 78 weeks, study length 78 weeks) “negative (inactive)”; (mouse, strain Crj: CD-1 (ICR), males, in feed, site: lung, lesion: alveolar/bronchiolar carcinoma, dosed 78 weeks, study length 78 weeks) “negative (inactive)”. For the same molecule, the carcinogen call by setting is: (rat, strain F344/DuCrj, females, in feed, site: kidney, lesion: transitional-cell carcinoma, dosed 104 weeks, study length 104 weeks) “negative (inactive)”; (rat, strain F344/DuCrj, females, in feed, site: liver, lesion: one or several types, types not named, dosed 104 weeks, study length 104 weeks) “negative (inactive)”; (rat, strain F344/DuCrj, males, in feed, site: liver, lesion: one or several types, types not named, dosed 104 weeks, study length 104 weeks) “negative (inactive)”; (rat, strain F344/DuCrj, males, in feed, site: urinary bladder, lesion: transitional-cell papilloma, dosed 104 weeks, study length 104 weeks) “negative (inactive)”.
On to `CN(C)c1ccc(C(=C2C=CC(=[N+](C)C)C=C2)c2ccc(N(C)C)cc2)cc1`, for which the TD50 (mouse, strain B6C3F1, females, in feed, site: Harderian gland, lesion: adenoma, dosed 107 weeks, study length 107 weeks) was 305 mg/kg/day; the TD50 (mouse, strain B6C3F1, females, in feed, site: liver, lesion: hepatocellular adenoma, dosed 78 weeks, study length 78 weeks) is 115 mg/kg/day; the TD50 (mouse, strain B6C3F1, females, in feed, site: liver, lesion: hepatocellular adenoma, dosed 107 weeks, study length 107 weeks) is 75.5 mg/kg/day; the TD50 (mouse, strain B6C3F1, females, in feed, site: liver, lesion: hepatocellular carcinoma, dosed 78 weeks, study length 78 weeks) was 343 mg/kg/day; the TD50 (mouse, strain B6C3F1, females, in feed, site: liver, lesion: hepatocellular carcinoma, dosed 107 weeks, study length 107 weeks) is 57.9 mg/kg/day; the TD50 (mouse, strain B6C3F1, females, in feed, site: ovary, lesion: reticulum-cell sarcoma, type A, dosed 107 weeks, study length 107 weeks) is 912 mg/kg/day. The TD50 is 834 mg/kg/day (mouse, strain B6C3F1, females, in feed, site: urinary bladder, lesion: reticulum-cell sarcoma, type A, dosed 107 weeks, study length 107 weeks); 413 mg/kg/day (mouse, strain B6C3F1, females, in feed, site: uterus, lesion: reticulum-cell sarcoma, type A, dosed 107 weeks, study length 107 weeks); 668 mg/kg/day (mouse, strain B6C3F1, females, in feed, site: vagina, lesion: reticulum-cell sarcoma, type A, dosed 107 weeks, study length 107 weeks); 615 mg/kg/day (mouse, strain B6C3F1, males, in feed, site: Harderian gland, lesion: adenoma, dosed 107 weeks, study length 107 weeks); 636 mg/kg/day (inactive) (mouse, strain B6C3F1, males, in feed, site: liver, lesion: hepatocellular adenoma, dosed 78 weeks, study length 78 weeks); 139 mg/kg/day (mouse, strain B6C3F1, males, in feed, site: liver, lesion: hepatocellular adenoma, dosed 107 weeks, study length 107 weeks). For the same molecule, the TD50 (mouse, strain B6C3F1, males, in feed, site: liver, lesion: hepatocellular carcinoma, dosed 107 weeks, study length 107 weeks) is 222 mg/kg/day. Also, the carcinogen call is “negative (inactive)” (mouse, strain B6C3F1, females, in feed, site: liver, lesion: one or several types, types not named, dosed 52 weeks, study length 52 weeks); “negative (inactive)” under setting [1]; “negative (inactive)” (mouse, strain B6C3F1, males, in feed, site: liver, lesion: hepatocellular carcinoma, dosed 78 weeks, study length 78 weeks).
The molecule `CN=C(N)N` had a TD50 (rat, strain Wistar, males, in feed, site: liver, lesion: hemangioma, dosed 68 weeks, study length 68 weeks) of 84 mg/kg/day.
